Laboratory results taken from publication PMC8997913, “Lichen Secondary Metabolites Inhibit the Wnt/β-Catenin Pathway in Glioblastoma Cells and Improve the Anticancer Effects of Temozolomide” (Cells, 2022).
Entries after “also recorded” stand apart in the source; their conditions may differ.

Columns and labels:
[1] = tested on: Wnt/β-catenin pathway target genes in T98G cells; assay: qPCR of β-catenin and Wnt target genes, T98G; type: cell-based, human; conditions: 48 h
Protocol: (§1) Based on the MTT test, the lichen secondary metabolite concentrations allowing the survival of more than 70% of cells were chosen for the subsequent experiments. The compounds were added as follows: A-172 cells—atranorin 25 µM, caperatic acid 50 µM, physodic acid 25 µM, squamatic acid 25 µM, salazinic acid 50 µM, and lecanoric acid 100 µM; T98G cells—atranorin 50 µM, caperatic acid 100 µM, physodic acid 25 µM, squamatic acid 50 µM, salazinic acid 100 µM, and lecanoric acid 100 µM; U-138 MG cells—atranorin 25 µM, caperatic acid 50 µM, physodic acid 25 µM, squamatic acid 50 µM, salazinic acid 50 µM, and lecanoric acid 100 µM. As far as the TMZ treatment is concerned, it was added in the concentrations depending on the MGMT expression and methylation status, i.e., TMZ 30 µM was added to the A-172 cell line, and TMZ 100 µM was added to both the T98G and U-138 MG cell lines. In the case of the 2D culture, the cells were treated with the compounds 24 h after seeding, whereas, in regard to 3D culture, 5 days were needed to form spheroids. All subsequent analyses were performed 48 h after treatment.
The Universal RNA Purification Kit (EURx, Gdańsk, Poland) was used for total RNA isolation from the A-172, T98G, and U-138 MG cells, and the Revert-Aid First Strand cDNA Synthesis kit (Fermentas, Burlington, ON, Canada) was chosen for cDNA synthesis. Quantitative real-time PCR (qPCR) was performed using Hot FIREPol EvaGreen qPCR Mix Plus (Solis Biodyne, Tartu, Estonia) and LightCycler 96 (Roche Diagnostics GmbH, Mannheim, Germany). Primer sequences were previously published and their synthesis was performed at the Institute of Biochemistry and Biophysics, Warsaw, Poland. The protocol started with 15 min enzyme activation at 95 °C, followed by 40 cycles of 95 °C for 15 s; appropriate annealing temperature for 20 s; 72 °C for 40 s and the final elongation at 72 °C for 5 min. Melting curve analysis was used to confirm the generation of a single amplification product. TATA box-binding protein (TBP), a component of the DNA-binding protein complex TFIID, served as the endogenous RNA control. The results were expressed as N-fold differences in the gene expression relative to the TBP gene. The ΔΔCt method was used for fold-change calculation. All samples were analyzed in triplicate, and the reaction was repeated at least twice.

T98G cells [2] = assay: Apoptosis, caspase-3/7 and 7-AAD flow cytometry, T98G; type: cell-based, human; conditions: 48 h, topotecan 100 nM
Protocol: as §1
The fluorescent-based analysis of apoptosis using Muse® Caspase-3/7 Kit was performed in order to analyze the percentage of live, early, and late apoptotic; total apoptotic; and dead cells in A-172, T98G, and U-138 MG GBM cells treated with lichen secondary metabolites. The principle of the method relies on the measurement of the activity of executioner caspases, i.e., caspase-3 and caspase-7, as well as analyzing the integrity of the cell membrane with the use of a dead cell marker 7-AAD. Cell seeding and treatment followed the same protocol as for cell cycle or ROS generation analysis, while the subsequent procedures were performed according to the manufacturer’s recommendations.

T98G cells [3] = assay: MTT test, T98G; type: cell-based; conditions: Homo sapiens, 48 h, three independent experiments, read-out: IC50 [uM] ± SEM T98G
Protocol: (§2) Three human GBM cell lines were used in this study, i.e., A-172 (ATCC-CRL-1620), T98G (92090213), and U-138 MG (ATCC-HTB-16). The A-172 and U-138 MG cell lines were purchased from the American Type Culture Collection (ATCC), whereas the T98G cell line was obtained from the European Collection of Authenticated Cell Cultures (ECACC). It has been confirmed by us that O^6-methylguanine-DNA methyltransferase (MGMT), the key factor determining the response to alkylating agents, such as TMZ, is expressed in T98G and U-138 MG cells, whereas in A-172 the expression of MGMT is silenced by promoter methylation. Therefore, the cell lines differ in terms of TMZ sensitivity; A-172 is regarded as TMZ sensitive, whereas T98G and U-138 MG are TMZ resistant.
(§3) The cells were grown as monolayers (2D cell culture) in the recommended media: A-172 were grown in the ATCC-formulated DMEM (Merck, Darmstadt, Germany), whereas T98G and U-138 MG cell lines were grown in the ATCC-formulated EMEM (Merck, Darmstadt, Germany). These media were supplemented with FBS (Biowest, Nuaillé, France) to a final concentration of 10%, as well as antibiotics (penicillin and streptomycin) (Merck, Darmstadt, Germany) to the final concentrations of 1%. For the experiments, the amount of FBS was reduced to 5%. The medium for the T98G cell line was supplemented with 2 mM glutamine, 1% nonessential amino acids, and 1% sodium pyruvate (all purchased from Merck, Darmstadt, Germany).
(§4) In order to analyze the cytotoxicity of the analyzed lichen secondary metabolites, as well as to establish the appropriate concentrations for further analysis (allowing the survival of >70% of cells), we performed the MTT test. The procedure of the test was described previously. Briefly, the cells (10,000 cells per well) were seeded on the 96-well plates and left for 24 h. Afterwards, the analyzed compounds in the concentration range of 1 µM up to 100 µM were added to the cells and left for 48 h incubation. DMSO treated cells served as control. After the above-mentioned time, the cells were washed twice with warm PBS and incubated for 3 h in the presence of a fresh medium containing MTT salt (0.5 mg/mL). Then the formazan crystals were dissolved in acidic isopropanol. The absorbance was measured at 570 and 690 nm on a Tecan Infinite M200 microplate reader (Grödig, Austria). The experiments were repeated at least three times.

A-172 cells = assay: MTT test, A-172; type: cell-based, human; conditions: for number of living cells: A-172, 1–100 µM; for IC50: A 172, 48 h, three independent experiments, read-out: IC50 [uM] ± SEM A-172
Protocol: as §2, §3, §4

[4] = mRNA vs DMSO control, single agent

| SMILES | Axin2 expression ([1]; co-treatment with TMZ 100 µM) | number of the six analyzed genes downregulated ([1]; co-treatment with TMZ 100 µM) | CCND1 expression [1, 4] | c-MYC expression [1, 4] | BIRC5 expression ([1]; mRNA vs DMSO control, single agent, TMZ 100 µM) | number of apoptotic cells vs control (T98G cells [2]) | CCND1 expression ([1]; co-treatment with TMZ 100 µM) | NEDD9 expression ([1]; co-treatment with TMZ 100 µM) | c-MYC expression ([1]; co-treatment with TMZ 100 µM) | β-catenin (CTNNB1) expression ([1]; co-treatment with TMZ 100 µM) | NEDD9 expression [1, 4] | IC50 (T98G cells [3]) [µM] | number of living cells (A-172 cells; 48 h) | IC50 (A-172 cells; Homo sapiens) [µM] | viability at 100 µM (A-172 cells; Homo sapiens, A-172, highest tested concentration (100 µM), 48 h) [%] | cells killed (A-172 cells; A-172, 100 µM, 48 h) |
| --- | --- | --- | --- | --- | --- | --- | --- | --- | --- | --- | --- | --- | --- | --- | --- | --- |
| Cc1cc(O)c(C=O)c2c1C(=O)Oc1c(CO)c(O)c3c(c1O2)C(O)OC3=O (centres unmarked) [Salazinic acid] | trend toward downregulation | five out of six | significantly upregulated | upregulated | downregulated | significant increase; also recorded: induced apoptosis |  |  |  |  |  |  |  |  |  |  |
| COc1cc(C)c(C(=O)Oc2cc(C)c(C(=O)O)c(O)c2C)c(O)c1C(=O)O [Squamatic acid] |  |  |  | trend towards downregulation, but with no statistical significance |  | significant increase; also recorded: induced apoptosis | downregulated | downregulated | downregulated | downregulated | downregulation | > 100 | reduced the number of living cells in the whole analyzed concentration range | 84.9 ± 3.62 |  |  |
| CCCCCCCCCCCCCCC(C(=O)O)C(O)(CC(=O)OC)C(=O)O (centres unmarked) [Caperatic acid] |  |  |  |  |  |  |  |  |  |  | downregulated | > 100 |  | 80.1 ± 1.88 | 11.7 ± 5.51 |  |
| COC(=O)c1c(C)cc(OC(=O)c2c(C)cc(O)c(C=O)c2O)c(C)c1O [Atranorin] |  |  |  | trend towards downregulation, but with no statistical significance |  |  |  |  |  |  |  | 98.6 ± 7.8 | reduced the number of living cells in the whole analyzed concentration range | 90.9 ± 3.7 |  |  |
| Cc1cc(OC(=O)c2c(C)cc(O)cc2O)cc(O)c1C(=O)O [Lecanoric acid] | downregulated |  |  |  |  | significant increase; also recorded: induced apoptosis | downregulated |  | downregulated | downregulated |  | > 100 |  | > 100 |  | ~ 30% |
